Values of other authors, collected in patent publication US12569487B2, “Treatment of hidradenitis with jak inhibitors” (PFIZER INC., priority 2019, dated 2026).
Like-named read-outs stand apart in the source and are kept apart here.

System: patients with moderate to severe HS
Conditions: for Clinical response rate (hidradenitis suppurativa clinical response, HiSCR): adalimumab weekly

In the case of adalimumab, the “Clinical response rate (hidradenitis suppurativa clinical response, HiSCR)” value (PIONEER I, Week 12, placebo 26.0%, P=0.003, oral antibiotics stopped at least 28 days before baseline) is listed as 41.8%, the “Clinical response rate (hidradenitis suppurativa clinical response, HiSCR)” value (PIONEER II, Week 12, placebo 27.6%, P<0.001, stable tetracycline-class antibiotics allowed) is listed as 58.9% and the “Rank-ordered secondary outcomes (lesions, pain, modified Sartorius score) versus placebo” value (Week 12, in PIONEER II only) is listed as “significantly greater improvement”. The “Patients with moderate to severe HS who did not respond to treatment” value (summary of the PIONEER trials) was about 40%.
